{
  "source": "patent US12115193B2",
  "about": "“Methods of using RARγ agonists for cancer treatment” (Io Therapeutics, Inc., priority 2021, dated 2024)",
  "key": {"EMT6 cells [1]": {"system": "EMT6 cells", "experiment": "EMT6 syngeneic mouse model of triple negative breast cancer (Example 3)", "assay_type": "in vivo", "conditions": "21 daily oral doses 10 mg/kg; at the end of the study", "description": "The RARγ agonists tazarotenic acid and GA2E were evaluated in the EMT6 syngeneic mouse model of breast cancer. 5×10^5 EMT6 cells were injected into the mammary fat pad of immunocompetent female Balb/c mice. When the tumors reached an average volume of 50-150 mm^3, mice were matched by tumor size into control or treatment groups (n=10-11).\nThe mice were treated with 21 daily oral doses 10 mg/kg of 1 mg/ml tazarotenic acid or GA2E, or vehicle control, starting on Day 0. Tumor volume was measured, and the mice weighed, on days 0, 1, 3, 6, 8, 10, 13, 15, 17, 20, and 21."}, "EMT6 cells [2]": {"system": "EMT6 cells", "experiment": "EMT6 triple negative breast cancer model, various dosages (Example 5)", "assay_type": "in vivo, mouse", "source_text": "The EMT6 triple negative breast cancer model, essentially as described above, was used to assess the effects of increased dosages of GA2E. The mice were orally administered 10 (n=10), 25 (n=10), or 50 (n=11) mg/kg of GA2E, or vehicle control (n=10) daily for 17 days. […] Two mice in the vehicle control group were terminated at Day 12 with tumors >1500 mm^3."}, "TIL in JIMT-1 tumors": {"system": "TIL in JIMT-1 tumors", "experiment": "Flow cytometry of JIMT-1 tumors from NSG-B2M mice, Day 26", "assay_type": "in vivo, human", "source_text": "(§1) The mice were sacrificed on Day 26 of the study and the tumors collected and analyzed by flow cytometry. Statistical analysis was by ordinary one-way ANOVA with Tukey's test for significance comparison between groups. Gates were set to identify single cells by forward light scatter, live cells as single cells based on side scatter and staining with the vital stain Fixable Viability Dye eFluor™ 780, white blood cells from live cells based on side scatter and staining with anti-CD45, lymphocytes from white blood cells based on side and forward light scatter, and total T lymphocytes (tot T) from lymphocytes based on side scatter and staining with anti-CD3. Total T lymphocytes were divided into CD4^+ (TH) and CD8^+ (TC) lymphocytes based on staining with and anti-CD4 and CD8 antibodies and subsets assessed. The following observations were made on a per-mg of tumor tissue basis."}, "[3]": {"system": "Lewis lung carcinoma (LLC) cells", "experiment": "Lewis lung carcinoma in vitro culture viability, Cell Titer Glo Assay", "assay_type": "cell-based, mouse", "description": "Lewis lung carcinoma (LLC) cells were cultured in vitro the presence of a multiple concentrations of the RARγ agonists GA1E, GA2E, and GA3Ep and viability assessed by the Cell Titer Glo Assay®."}, "LLC cells": {"system": "LLC cells", "experiment": "LLC syngeneic model in C57BL/6 mice (Example 10)", "assay_type": "in vivo", "description": "The LLC model is based on an epidermoid carcinoma of the lung that spontaneously arose in a C57BL/6 mouse some 70 years ago, Syngeneic models have been useful in predicting clinical benefit. C57BL/6 mice, 6-8 weeks old, were injected subcutaneously in the left flank with 0.1 mL containing 3×10^5 LLC cells. When tumors reached an average tumor volume of 50-150 mm^3, the mice were matched by tumor size and sorted into control and treatment groups, and dosing initiated (Day 0). Three groups of 10 mice each were established: vehicle control, 10 mg/kg GA2E, and 25 mg/kg GA2E. The mice received one oral dose per day for 13 days. Tumor volumes and weight were measured on days 0, 2, 4, 6, 9, 11, and 13. This study was ended on Day 13, as the average tumor volume was >1500 mm^3, and the tumors analyzed by flow cytometry. Two animals in the 10 mg/kg group and one animal in the 25 mg/kg group were terminated early due to ulceration of the tumor."}, "TIL in LLC tumors": {"system": "TIL in LLC tumors", "experiment": "Flow cytometry of LLC tumors, Day 13", "assay_type": "in vivo, mouse", "source_text": "as §1, with “13” for “26”, “assessed (FIG. 20).” for “assessed.”"}, "[4]": {"conditions": "per mg tumor, vs controls, P<0.0001"}, "[5]": {"conditions": "per mg tumor, vs controls, P<0.001"}, "[6]": {"conditions": "per mg tumor, vs controls, P<0.05"}, "[7]": {"conditions": "per mg tumor, vs controls, P<0.05, listed as GA2"}, "[8]": {"conditions": "per mg tumor, vs controls, P>0.05"}, "[9]": {"conditions": "10 mg/kg oral daily for 13 days"}, "[10]": {"conditions": "25 mg/kg oral daily for 13 days"}},
  "data": [
    {"smiles": "CC1(C)CCC(C)(C)c2cc(C(/C=C/c3ccc(C(=O)O)cc3F)=N/O)ccc21", "note": "[GA2E, 3-fluoro-4-((1E,3E)-3-(hydroxyimino)-3-(5,5,8,8-tetramethyl-5,6,7,8-tetrahydronaphthalen-2-yl)prop-1-en-1-yl)benzoic acid]", "values": [
      {"measurement": "tumor growth inhibition", "setting": "EMT6 cells [1]", "result": 63, "unit": "%"},
      {"measurement": "tolerability", "setting": "EMT6 cells [2]; 10 mg/kg oral daily for 17 days", "result": "acceptably well-tolerated"},
      {"measurement": "mice terminated for excessive weight loss", "setting": "EMT6 cells [2]; 25 mg/kg group (n=10), oral daily", "result": "one mouse"},
      {"measurement": "inhibiting tumor growth, 25 mg/kg dosage versus 10 mg/kg dosage", "setting": "EMT6 cells [2]; 25 mg/kg oral daily", "result": "somewhat more effective"},
      {"measurement": "tolerability", "setting": "EMT6 cells [2]; 25 mg/kg oral daily for 17 days", "result": "acceptably well-tolerated"},
      {"measurement": "weight loss", "setting": "EMT6 cells [2]; 25 mg/kg, only a short excursion", "result": "more than 10%"},
      {"measurement": "mice terminated for excessive weight loss", "setting": "EMT6 cells [2]; 50 mg/kg oral daily (n=11)", "result": "terminated for excessive weight loss not later than Day 12"},
      {"measurement": "tumor inhibition by the 50 mg/kg dosage versus the other dosages", "setting": "EMT6 cells [2]; 50 mg/kg, limited time in the study (to Day 12)", "result": "not clearly different"},
      {"measurement": "proportion of tumor cells expressing PD-L1, CD18β, CD58 (LFA-3), and Her2", "setting": "TIL in JIMT-1 tumors; JIMT-1 tumor cells, flow cytometry", "result": "did not significantly alter"},
      {"measurement": "concentration of T central memory CD8+ cells (CCR7+ CD45AR−) in tumor", "setting": "TIL in JIMT-1 tumors; per mg tumor, vs controls", "result": "no significant change"},
      {"measurement": "concentration of T effector memory CD8+ cells (CCR7− CD45AR−) in tumor", "setting": "TIL in JIMT-1 tumors; per mg tumor, vs controls", "result": "no significant change"},
      {"measurement": "concentration of naïve CD8+ cells (CCR7+ CD45AR+) in tumor", "setting": "TIL in JIMT-1 tumors; per mg tumor, vs controls", "result": "no significant change"},
      {"measurement": "concentration of CD8+ TIL expressing PD-1", "setting": "TIL in JIMT-1 tumors; [4]", "result": "increased"},
      {"measurement": "concentration of terminally differentiated CD8+ T effector cells (CCR7− CD45AR+)", "setting": "TIL in JIMT-1 tumors; [4]", "result": "substantial increase"},
      {"measurement": "concentration of CD8+ TIL expressing CD18β", "setting": "TIL in JIMT-1 tumors; [5]", "result": "increased"},
      {"measurement": "concentration of total CD8+ lymphocytes in tumor", "setting": "TIL in JIMT-1 tumors; [5]", "result": "increased"},
      {"measurement": "concentration of CD8+ TIL expressing CD54", "setting": "TIL in JIMT-1 tumors; per mg tumor, vs controls, P<0.01", "result": "increased"},
      {"measurement": "concentration of CD4+ TIL expressing CD18β", "setting": "TIL in JIMT-1 tumors; [6]", "result": "increased"},
      {"measurement": "concentration of CD4+ TIL expressing CD54", "setting": "TIL in JIMT-1 tumors; [6]", "result": "decreased"},
      {"measurement": "concentration of CD4+ TIL expressing PD-1", "setting": "TIL in JIMT-1 tumors; [6]", "result": "decreased"},
      {"measurement": "concentration of T central memory CD4+ cells (CCR7+ CD45AR−)", "setting": "TIL in JIMT-1 tumors; [6]", "result": "decreased"},
      {"measurement": "concentration of T effector memory CD4+ cells (CCR7− CD45AR−)", "setting": "TIL in JIMT-1 tumors; [6]", "result": "decreased"},
      {"measurement": "concentration of naïve CD4+ cells (CCR7+ CD45AR+)", "setting": "TIL in JIMT-1 tumors; [6]", "result": "decreased"},
      {"measurement": "concentration of total CD4+ lymphocytes in tumor", "setting": "TIL in JIMT-1 tumors; [6]", "result": "decreased"},
      {"measurement": "concentration of CD4+ TIL expressing CD54", "setting": "TIL in JIMT-1 tumors; [7]", "result": "increased"},
      {"measurement": "concentration of CD4+ TIL expressing PD-1", "setting": "TIL in JIMT-1 tumors; [7]", "result": "increased"},
      {"measurement": "concentration of CD4+ TIL expressing FoxP3", "setting": "TIL in JIMT-1 tumors; [8]", "result": "increased"},
      {"measurement": "concentration of terminally differentiated CD4+ T effector cells (CCR7− CD45AR+)", "setting": "TIL in JIMT-1 tumors; [8]", "result": "decreased"},
      {"measurement": "effect on viability as concentrations exceeded 10 μM", "setting": "[3]", "result": "rapidly became toxic"},
      {"measurement": "effect on viability at concentrations below 1 μM", "setting": "[3]", "result": "no effect"},
      {"measurement": "IC50", "setting": "[3]; Mus musculus, Lewis lung carcinoma", "result": 46, "unit": "µM"},
      {"measurement": "tolerability", "setting": "LLC cells; [9]", "result": "well tolerated"},
      {"measurement": "tumor growth", "setting": "LLC cells; [9]", "result": "inhibited tumor growth"},
      {"measurement": "weight loss over the course of the study", "setting": "LLC cells; [9]", "result": "minimal weight loss"},
      {"measurement": "tolerability", "setting": "LLC cells; [10]", "result": "less well tolerated"},
      {"measurement": "tumor growth", "setting": "LLC cells; [10]", "result": "inhibited tumor growth"},
      {"measurement": "weight loss", "setting": "LLC cells; 25 mg/kg oral daily, by about Day 10", "result": "exceeding 10%"},
      {"measurement": "proportion of Treg cells as a percentage of total T cell", "setting": "TIL in LLC tumors; P<0.001", "result": "significantly reduced"},
      {"measurement": "concentration of T helper cells", "setting": "TIL in LLC tumors; per mg tumor, 10 and 25 mg/kg", "result": "did not change significantly"},
      {"measurement": "concentration of T regulatory cells", "setting": "TIL in LLC tumors; per mg tumor, 10 and 25 mg/kg", "result": "did not change significantly"},
      {"measurement": "concentration of central memory CD8+ T cells", "setting": "TIL in LLC tumors; per mg tumor, 10 and 25 mg/kg", "result": "did not change significantly"},
      {"measurement": "concentration of naïve CD8+ T cells", "setting": "TIL in LLC tumors; per mg tumor, 10 and 25 mg/kg", "result": "did not change significantly"},
      {"measurement": "concentration of total CD4+ T cells", "setting": "TIL in LLC tumors; per mg tumor, 10 and 25 mg/kg", "result": "did not change significantly"},
      {"measurement": "concentration of effector memory CD8+ T cells", "setting": "TIL in LLC tumors; per mg tumor, P<0.01 for the 25 mg/kg dosage", "result": "increased"},
      {"measurement": "concentration of cytotoxic cells (CD8, intracellular IFN-γ)", "setting": "TIL in LLC tumors; per mg tumor, P<0.05 for the 25 mg/kg dosage", "result": "increased"},
      {"measurement": "concentration of total CD8+ lymphocytes in tumor", "setting": "TIL in LLC tumors; per mg tumor, vs controls, P<0.05 for the 25 mg/kg dosage", "result": "increased"}
    ]}
  ]
}
